# From the supplement of paper PMC10307832
# What was measured:
# Experiment in all cases: relative viability (nuclei count vs DMSO), 5 days (fraction); higher = more cells survive
# [1] = compound: Cc1nc(Nc2ncc(C(=O)Nc3c(C)cccc3Cl)s2)cc(N2CCN(CCO)CC2)n1 [Dasatinib] + Cc1nc(NC(=O)N2CCC[C@H]2C(N)=O)sc1-c1ccnc(C(C)(C)C(F)(F)F)c1 [Alpelisib] (partner 2 µM)
# Method in brief: (§1)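 Lung cancer cell lines were pin-tool dosed in 1536-well plates on the day after seeding, with either a lone drug or a fixed anchor-drug dose plus five library-drug doses (not always all listed) in √10 steps. Nuclei were counted on 4× images after 5 days. Relative viability is the ratio of treated-well to vehicle-well nuclei counts, with each value a median of duplicate plates.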
# [2] = compound: Cc1ccc(C(=O)Nc2cccc(C(F)(F)F)c2)cc1Nc1cncc(C(N)=O)c1 [ALW-II-49-7] + O=C(c1cc(Cc2n[nH]c(=O)c3ccccc23)ccc1F)N1CCN(C(=O)C2CC2)CC1 [Olaparib] (partner 8 µM)
# Method in brief: as §1
# [3] = compound: Cc1nc(Nc2ncc(C(=O)Nc3c(C)cccc3Cl)s2)cc(N2CCN(CCO)CC2)n1 [Dasatinib] + NC(=O)Nc1cc(-c2cccc(F)c2)sc1C(=O)N[C@H]1CCCNC1 [AZD7762] (partner 0.2 µM)
# Method in brief: as §1
# [4] = compound: C1CC1C(=O)NC2=NNC3=C2C=CC(=C3)C4=CC(=CC=C4)C(=O)NC5CC5 [XMD13-2] + COc1cccc2cc(-c3nc([C@H]4CC[C@H](C(=O)O)CC4)n4ncnc(N)c34)[nH]c12 [OSI-027] (partner 0.5 µM)
# Method in brief: as §1
Cell Line,relative viability ([1]; first compound 0.005 µM),relative viability ([1]; first compound 0.01581 µM),relative viability ([1]; first compound 0.05 µM),relative viability ([1]; first compound 0.1581 µM),relative viability ([1]; first compound 0.5 µM),relative viability ([2]; first compound 0.08 µM),relative viability ([2]; first compound 0.253 µM),relative viability ([2]; first compound 0.8 µM),relative viability ([2]; first compound 2.53 µM),relative viability ([2]; first compound 8 µM),relative viability ([3]; first compound 0.005 µM),relative viability ([3]; first compound 0.01581 µM),relative viability ([3]; first compound 0.05 µM),relative viability ([3]; first compound 0.1581 µM),relative viability ([3]; first compound 0.5 µM),relative viability ([4]; first compound 0.05 µM),relative viability ([4]; first compound 0.1581 µM),relative viability ([4]; first compound 0.5 µM),relative viability ([4]; first compound 1.581 µM),relative viability ([4]; first compound 5 µM)
LC-2-ad,0.854,0.703,0.699,0.276,0.169,0.736,0.793,0.682,0.721,0.343,0.871,0.727,0.599,0.337,0.268,0.86,0.78,0.972,0.723,0.67
LCLC-97TM1,0.266,0.246,0.24,0.254,0.143,0.429,0.442,0.399,0.279,0.353,0.161,0.274,0.218,0.17,0.0853,0.612,0.404,0.603,0.433,0.445
LCLC-103H,0.978,1.06,0.818,0.647,0.328,0.724,0.79,0.771,0.714,0.762,0.695,0.666,0.628,0.523,0.331,0.588,0.497,0.47,0.509,0.506
LK-2,1.04,0.764,0.449,0.312,0.275,0.803,0.682,0.576,–,0.817,0.31,–,0.191,0.0866,0.129,0.236,0.151,0.191,0.239,0.216
LOU-NH91,0.69,0.584,0.572,0.441,0.34,0.846,0.946,0.923,–,0.805,0.747,0.638,0.623,0.469,0.384,0.753,0.716,0.759,0.663,0.815
LU99A,0.494,0.5,0.477,0.288,0.192,–,0.292,0.249,0.254,0.288,0.399,0.35,0.277,0.215,0.171,0.312,0.273,0.264,0.302,0.29
LXF-289,1.05,1.05,0.666,0.154,0.109,1.02,0.909,1.09,1.26,1.09,1.14,1.12,1.09,0.371,0.184,0.874,0.761,0.829,0.697,0.867
NCI-H23,0.597,0.549,0.615,0.403,0.323,0.328,0.363,0.383,0.294,0.298,0.321,0.24,0.231,0.224,0.187,0.761,0.544,0.593,0.411,0.783
NCI-H322M,0.855,0.773,0.696,0.459,0.203,0.288,0.742,0.638,0.732,0.716,0.597,0.526,0.468,0.265,0.381,0.576,0.507,0.519,0.588,0.593
NCI-H358,0.726,0.585,0.458,0.24,0.204,0.431,0.545,0.644,0.452,0.387,0.538,0.455,0.364,0.241,0.244,0.97,0.686,0.848,0.726,0.442
NCI-H441,0.878,0.874,0.574,0.355,0.218,0.592,0.52,0.592,0.47,0.383,1.27,1.01,0.904,0.723,0.364,0.682,0.777,0.578,0.485,0.588
NCI-H460,0.286,0.179,0.159,0.122,0.0551,0.435,0.704,0.414,0.143,0.325,0.523,0.546,0.542,0.472,0.328,0.939,0.837,0.713,0.723,0.645
NCI-H596,0.387,0.436,0.378,0.326,0.221,0.523,0.616,0.774,0.599,0.757,0.945,0.828,0.929,0.74,0.553,0.776,0.673,0.715,0.79,0.985
NCI-H647,0.779,0.419,0.319,0.166,0.146,0.619,0.386,0.636,0.51,0.367,0.468,0.399,0.141,0.114,0.155,0.779,0.781,0.669,0.59,0.508
NCI-H650,1.16,1.05,1.04,0.726,0.428,0.42,0.388,0.416,0.351,0.304,0.75,0.896,1.01,0.606,0.4,0.522,0.512,0.599,0.474,0.522
NCI-H727,0.453,0.375,0.397,0.219,0.234,0.663,0.843,0.603,0.501,0.597,0.547,0.587,0.595,0.375,0.35,0.543,0.68,0.573,0.54,0.664
